Assay results from PubChem BioAssay (NCI).
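Dose response: 5 concentrations. Exposure: 48 h. Format: 96-well plates. Endpoint: linear interpolation; highest concentration if not reached. GI50 = concentration required for 50% inhibition of growth. At the TGI there is no net growth.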

Columns and labels:
Assay in all cases: growth of human tumour cells (NCI), 48 h
A549 NSCLC = tested on: A549 NSCLC
ACHN renal = tested on: ACHN renal
BT-549 breast = tested on: BT-549 breast
CAKI-1 renal = tested on: CAKI-1 renal
CCRF-CEM leukemia = tested on: CCRF-CEM leukemia
COLO 205 colon = tested on: COLO 205 colon
DU-145 prostate = tested on: DU-145 prostate
EKVX NSCLC = tested on: EKVX NSCLC
HCC-2998 colon = tested on: HCC-2998 colon
HCT-116 colon = tested on: HCT-116 colon
HCT-15 colon = tested on: HCT-15 colon
HOP-62 NSCLC = tested on: HOP-62 NSCLC
HOP-92 NSCLC = tested on: HOP-92 NSCLC
HS 578T breast = tested on: HS 578T breast
HT29 colon = tested on: HT29 colon
K-562 leukemia = tested on: K-562 leukemia
KM12 colon = tested on: KM12 colon
LOX IMVI melanoma = tested on: LOX IMVI melanoma
M14 melanoma = tested on: M14 melanoma
MALME-3M melanoma = tested on: MALME-3M melanoma
MCF7 breast = tested on: MCF7 breast
MDA-MB-435 = tested on: MDA-MB-435
MOLT-4 leukemia = tested on: MOLT-4 leukemia
NCI-H23 lung = tested on: NCI-H23 lung
NCI-H460 lung = tested on: NCI-H460 lung
NCI/ADR-RES ovarian = tested on: NCI/ADR-RES ovarian
OVCAR-3 ovarian = tested on: OVCAR-3 ovarian
OVCAR-4 ovarian = tested on: OVCAR-4 ovarian
OVCAR-5 ovarian = tested on: OVCAR-5 ovarian
OVCAR-8 ovarian = tested on: OVCAR-8 ovarian
PC-3 prostate = tested on: PC-3 prostate
RPMI-8226 leukemia = tested on: RPMI-8226 leukemia
SF-268 CNS = tested on: SF-268 CNS
SF-295 CNS = tested on: SF-295 CNS
SF-539 CNS = tested on: SF-539 CNS
SK-MEL-28 melanoma = tested on: SK-MEL-28 melanoma
SK-MEL-5 melanoma = tested on: SK-MEL-5 melanoma
SK-OV-3 ovarian = tested on: SK-OV-3 ovarian
SN12C renal = tested on: SN12C renal
SNB-19 CNS = tested on: SNB-19 CNS
SNB-75 CNS = tested on: SNB-75 CNS
SW-620 colon = tested on: SW-620 colon
T-47D breast = tested on: T-47D breast
TK-10 renal = tested on: TK-10 renal
U251 CNS = tested on: U251 CNS
UACC-257 melanoma = tested on: UACC-257 melanoma
UACC-62 melanoma = tested on: UACC-62 melanoma

## Nc1ccccc1C#C/C=C\C#Cc1cnccn1
A549 NSCLC
  GI50: 30.2 µM
  TGI: > 100 µM
ACHN renal
  GI50: 22.2 µM
  TGI: 79.7 µM
BT-549 breast
  GI50: 20.3 µM
  TGI: 70.2 µM
CAKI-1 renal
  GI50: 46.3 µM
  TGI: > 100 µM
CCRF-CEM leukemia
  TGI: 14.8 µM
COLO 205 colon
  GI50: 14.5 µM
  TGI: 28.5 µM
DU-145 prostate
  GI50: 19.4 µM
  TGI: > 100 µM
EKVX NSCLC
  GI50: 16.3 µM
  TGI: > 100 µM
HCC-2998 colon
  GI50: 11 µM
  TGI: 23 µM
HCT-116 colon
  GI50: 11.2 µM
  TGI: 23.2 µM
HCT-15 colon
  GI50: 26.1 µM
  TGI: > 100 µM
HOP-62 NSCLC
  GI50: 13.6 µM
  TGI: 32.3 µM
HOP-92 NSCLC
  GI50: 1.36 µM
  TGI: 18.3 µM
HS 578T breast
  GI50: 27 µM
  TGI: > 100 µM
HT29 colon
  GI50: 23.4 µM
  TGI: 74.3 µM
K-562 leukemia
  GI50: 6.66 µM
  TGI: > 100 µM
KM12 colon
  GI50: 23.3 µM
  TGI: > 100 µM
LOX IMVI melanoma
  GI50: 2.93 µM
  TGI: 17.5 µM
M14 melanoma
  GI50: 6.21 µM
  TGI: 20.4 µM
MALME-3M melanoma
  GI50: 19.9 µM
  TGI: 58.6 µM
MCF7 breast
  GI50: 21.3 µM
  TGI: > 100 µM
MDA-MB-435
  GI50: 48.4 µM
  TGI: > 100 µM
MOLT-4 leukemia
  GI50: 12.4 µM
  TGI: 68.5 µM
NCI-H23 lung
  GI50: 12.1 µM
  TGI: 27 µM
NCI-H460 lung
  GI50: 29.8 µM
  TGI: > 100 µM
NCI/ADR-RES ovarian
  GI50: 13.7 µM
  TGI: 31.9 µM
OVCAR-3 ovarian
  GI50: 86.5 µM
  TGI: > 100 µM
OVCAR-4 ovarian
  GI50: 23.1 µM
  TGI: > 100 µM
OVCAR-5 ovarian
  GI50: 18.8 µM
  TGI: 45.7 µM
OVCAR-8 ovarian
  GI50: 41.8 µM
  TGI: > 100 µM
PC-3 prostate
  GI50: 4.11 µM
  TGI: 23.8 µM
RPMI-8226 leukemia
  GI50: 3.17 µM
  TGI: 19.2 µM
SF-268 CNS
  GI50: 27.5 µM
  TGI: > 100 µM
SF-295 CNS
  GI50: 74.6 µM
  TGI: > 100 µM
SF-539 CNS
  GI50: 22.8 µM
  TGI: 87.6 µM
SK-MEL-28 melanoma
  GI50: 27.8 µM
  TGI: > 100 µM
SK-MEL-5 melanoma
  GI50: 6.34 µM
  TGI: 21.3 µM
SK-OV-3 ovarian
  GI50: 31.1 µM
  TGI: 95.5 µM
SN12C renal
  GI50: 4.33 µM
  TGI: 20.7 µM
SNB-19 CNS
  GI50: 36.7 µM
  TGI: > 100 µM
SNB-75 CNS
  GI50: 21.1 µM
  TGI: 90.7 µM
SW-620 colon
  GI50: 15.2 µM
  TGI: 46.1 µM
T-47D breast
  GI50: 17.7 µM
  TGI: 40.3 µM
TK-10 renal
  GI50: 32.4 µM
  TGI: 60 µM
U251 CNS
  GI50: 18.2 µM
  TGI: 41.8 µM
UACC-257 melanoma
  GI50: 26 µM
  TGI: > 100 µM
UACC-62 melanoma
  GI50: 3.95 µM
  TGI: 21 µM
